Laboratory results taken from patent publication US8242166B2, “C(10) ethyl ester and C(10) cyclopropyl ester substituted taxanes” (Florida State University Research Foundation, Inc., priority 2008, dated 2012).
Where two headings read alike, the source gives them in different places.

Key:
[1] = test system: PANC-1; test: MTT cytotoxicity (IC50), PANC-1; type: cell-based; details: Homo sapiens, 72 h, read-out: IN Vitro IC50 (nm) Panc
Method: (§1) Compound 17932 was tested in four of these cell lines, while the remaining compounds were tested in all of these cell lines. All cell lines were maintained in RPMI-1640 tissue culture medium (TCM, supplemented with antibiotics and 10% fetal bovine serum) and cultured at 37° C. in humidified air containing 5% CO2. To assess the antiproliferative effects of the test compounds, 172 μL of tumor cell suspension (1.45×10^4 cells/ml) were added to each well of a 96-well plate and incubated for 24 h at 37° C. in 5% CO2 in air to allow cells to adhere. Seven 2-fold drug dilutions in TCM/DMSO were performed in triplicate in separate 96-well plates and 28 μL was transferred to the wells containing tumor cells (200 μL final volume/0.1% DMSO). Plates were incubated for 72 h and cell viability was determined by adding 50 μL of warm TCM containing 5 mg/mL MTT (3-[4,5-dimethylthiazol-2-yl]-2,5-diphenyltetrazolium bromide) to each well and incubating for 1 h at 37° C. Plates were processed and the absorbances of the resulting solutions were measured by a plate reader at 570 nm. […] (GraphPad Prism version 4.00 for Windows). Studies were conducted by Taxolog, Inc., Tallahassee, Fla.

[2] = test system: A375; test: MTT cytotoxicity (IC50), A375; type: cell-based; details: Homo sapiens, A-375
Method: as §1

[3] = test system: A549; test: MTT cytotoxicity (IC50), A549; type: cell-based; details: Homo sapiens, 72 h, read-out: IN Vitro IC50 (nm) A549
Method: as §1

[4] = test system: MALME-3; test: MTT cytotoxicity (IC50), MALME-3; type: cell-based; details: Homo sapiens, 72 h, read-out: IN Vitro IC50 (nm) Malme3
Method: as §1

[5] = test system: OVCAR5; test: MTT cytotoxicity (IC50), OVCAR5; type: cell-based; details: Homo sapiens, OVCAR-5, 72 h, read-out: IN Vitro IC50 (nm) OVCAR5
Method: as §1

[6] = test system: SK-MEL-28; test: MTT cytotoxicity (IC50), SK-MEL-28; type: cell-based; details: Homo sapiens, 72 h, read-out: IN Vitro IC50 (nm) ske-mel28
Method: as §1

[7] = test system: BxPC-3 cancer cell line; test: MTT cytotoxicity (IC50), BxPC-3 (Oncodesign); type: cell-based; details: Homo sapiens
Method: BxPC-3 cancer cell line (Source ATCC) and culture medium were purchased and provided by Oncodesign (France).
Tumor cells (5,000 cells per well) were plated in 96-well flat-bottom microtitration plates (Ref 167008, Batch 083310, Nunc, Dutscher, Brumath, France) and incubated at 37° C. for 24 hours before treatment in 100 μl of drug-free RPMI 1640 medium supplemented with 10% FBS. Tumor cell lines were incubated for 72 hours with 10 concentrations of both test substances and TXT (40 to 0.07 nM using ½ step dilutions). Experiments were repeated three times, each assay being issued from quadruplicate. Control cells were treated with the vehicle alone. At the end of treatments, the cytotoxic activity was evaluated by a MTT assay. These studies were conducted at Oncodesign, France.

[8] = test system: HT29 human tumor xenografts; test: HT29 xenograft study e139 (Example 23); type: in vivo, nude mice
[9] = test system: HT29 human tumor xenografts; test: HT29 xenograft study e210, oral and i.v. (Example 25); details: 25 mg/kg iv qwk × 3
Source text: The formulation for oral studies was an ethanol and Cremophor formulation while the formulation for compound 18365 and compound 19244 dosed i.v. was 5% ethanol and 95% Liposyn II 20%.

[10] = test system: human BxPC-3 human pancreatic xenograft; type: in vivo; details: for T/C % values: from D33
Method: Method: Twenty four (24) hours after a whole body irradiation with a γ-source (7.0 Gy, Co^60, INRA, Dijon, France) 20×10^6 BxPC-3 cells in 200 μl of RPMI 1640 culture medium were subcutaneously injected in the right flank of 8 female Nude rats to generate tumor material. When the tumor size reaches approximately 1,000 mm^3, the tumors were surgically excised for implantation into recipient Nude female rats. Twenty four (24) hours after a whole body irradiation (7.0 Gy, Co^60, INRA, Dijon, France), fresh BxPC-3 tumor fragments were sc implanted in the right flank of 52 Nude female rats (1 fragment/rat) at D0 using surgical pliers and skin was stitched. The antitumor activity study was started at D21 when the mean tumor volume has reached 321.6±131.2 mm^3. Before the start of treatments, 42 tumor bearing rats out of 52 grafted were randomized into 7 groups of 6 animals.
[…]. At 7 mg/kg/inj, only two treatments were performed at D21 and D42 due to severe body weight loss.

In the case of `CC(=O)O[C@@]12CO[C@@H]1C[C@H](O)[C@@]1(C)C(=O)[C@H](O)C3=C(C)[C@@H](OC(=O)[C@H](O)[C@@H](NC(=O)OC(C)(C)C)c4ccccc4)C[C@@](O)([C@@H](OC(=O)c4ccccc4)[C@H]21)C3(C)C` [Docetaxel, docetaxel, reference compound], the IC50 [1] is reported as 1.9 nM, the IC50 ([2]; MTT, 72 h, read-out: IN Vitro IC50 (nm) A375) is reported as 2.4 nM and the IC50 ([2]; Resistance MRP9, read-out: A375 Melanoma (Table 4, quantity not named; IC50 values as Table 2)) is reported as 2.4 nM. The IC50 [3] was 1.3 nM, the IC50 [4] was 1.8 nM and the IC50 [5] was 1.1 nM. For the same molecule, the IC50 [6] was 2.1 nM, the IC50 ([7]; BXPC-3, 72 h, Exp 1, MTT, 72 hours, read-out: IC50 (nM) BxPC-3) was 0.93 nM and the IC50 ([7]; BXPC-3, 72 h, Exp 2, MTT, 72 hours, read-out: IC50 (nM) BxPC-3) was 2.2 nM. For the same molecule, the IC50 ([7]; BXPC-3, 72 h, Exp 3, MTT, 72 hours, read-out: IC50 (nM) BxPC-3) was 0.73 nM, the IC50 ([7]; BXPC-3, mean of 3 experiments, read-out: IC50 Mean ± SD (nM) BxPC-3) was 1.29 ± 0.8 nM and the “Day 54 mm^3 (tumor size)” value ([8]; 25 mg/kg iv q7d × 3) was 180.6 mm^3. The “Max. BW Loss %; Day” value ([8]; 25 mg/kg iv q7d × 3) was −14.4%; Day 19, the “Number of Death NTR” value ([8]; 25 mg/kg iv q7d × 3, N=6) was 0 and the “Number of Death TR” value ([8]; 25 mg/kg iv q7d × 3, N=6) was 0. The TGD ([8]; 25 mg/kg q7d×3) was 210%, the “group mean body-weight (BW) loss” value ([8]; 25 mg/kg q7d×3) was 14.4% and the “MTV (Day 61)” value ([8]; 25 mg/kg q7d×3, five mice) was 196 mm^3. For the same molecule, the LTTFS ([8]; 25 mg/kg q7d×3, six mice) was 1, the PR responses ([8]; 25 mg/kg q7d×3, six mice) was 5 and the “% TGD” value [9] was 214.3%. The “MTV (n), Day 60” value [9] was 40.00 (6) mm^3, the “Median TTE” value [9] was 60 days and the T-C [9] was 40.91 days. The “CR (complete regression)” value ([9]; n=6) was 4, the “NTR NTRm” value ([9]; n=6) was 0 and the “PR (partial regression)” value ([9]; n=6) was 2. For the same molecule, the “TFS (tumor-free survivor)” value ([9]; n=6) was 2, the “TR (treatment-related death)” value ([9]; n=6) was 0 and the rats found dead ([10]; 5 mg/kg/inj IV, 6 rats per group) was 2. The rats found dead ([10]; 5 mg/kg/inj IV, 6 rats per group, listed as TXT) was “two”, the “optimal T/C % value” ([10]; 5 mg/kg/inj IV, at D60) was 3.8% and the “animals with complete tumor regression” value ([10]; 5 mg/kg/inj IV, at D81 (final sacrifice), 6 rats per group) was “one”. For the same molecule, the T/C % values ([10]; 5 mg/kg/inj IV) was “lower than 42%”, the rats found dead ([10]; 7 mg/kg/inj IV, 6 rats per group) was 2 and the rats found dead ([10]; 7 mg/kg/inj IV, 6 rats per group, listed as TXT) was “Two”. For the same molecule, the “optimal T/C % value” ([10]; 7 mg/kg/inj IV, at D56) was 12.3%, the T/C % values ([10]; 7 mg/kg/inj IV) was “lower than 42%” and the “antitumor activity” value ([10]; repeated IV injections at 5 and 7 mg/kg/inj) was “marked antitumor activity”.
